Like-named read-outs stand apart in the source and are kept apart here. Square brackets hold non-standard residues; d marks the D form. Peptide text beside a SMILES is read from it. * marks the point of attachment. ξ: configuration not given here. 2Thi = N[C@@H](Cc1cccs1)C(=O)O; ξαMeL = CC(C)CC(C)(N)C(=O)O; Bn = c1ccc(C*)cc1; Ms = CS(=O)(=O)*
Assays:
Assay type in all cases: biochemical
thrombin = biological target: T1, thrombin (Homo sapiens, UniProt P00734); experiment: Inhibition of thrombin; settings: 10 uM, read-out: Thrombin % I @ 10 uM
T1 construct: purchased Sigma Chem. Co. T-7009

[1] = biological target: T2, Recombinant human calpain I (Homo sapiens, UniProt P07384); experiment: Inhibition of calpain I activity
T2 construct: made in house
T2 sequence (P07384 1-714): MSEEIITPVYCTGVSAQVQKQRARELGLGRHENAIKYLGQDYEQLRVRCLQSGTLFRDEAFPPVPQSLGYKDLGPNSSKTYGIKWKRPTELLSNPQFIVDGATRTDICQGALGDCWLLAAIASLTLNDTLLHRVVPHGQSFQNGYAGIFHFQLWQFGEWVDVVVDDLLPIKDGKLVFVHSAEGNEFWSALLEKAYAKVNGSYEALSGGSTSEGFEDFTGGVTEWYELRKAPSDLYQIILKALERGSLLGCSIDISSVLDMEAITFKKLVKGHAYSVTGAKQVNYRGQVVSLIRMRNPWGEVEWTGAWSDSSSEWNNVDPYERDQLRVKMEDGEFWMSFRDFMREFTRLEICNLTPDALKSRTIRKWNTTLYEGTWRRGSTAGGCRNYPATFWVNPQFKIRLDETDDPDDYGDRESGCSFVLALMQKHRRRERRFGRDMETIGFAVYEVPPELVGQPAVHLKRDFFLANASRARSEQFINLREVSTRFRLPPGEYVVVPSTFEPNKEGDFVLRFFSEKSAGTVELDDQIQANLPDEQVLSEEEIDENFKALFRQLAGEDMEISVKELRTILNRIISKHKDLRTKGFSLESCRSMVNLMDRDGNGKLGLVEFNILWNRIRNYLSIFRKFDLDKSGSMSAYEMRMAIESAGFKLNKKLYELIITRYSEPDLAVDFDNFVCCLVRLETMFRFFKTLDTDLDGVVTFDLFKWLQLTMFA

cathepsin L = biological target: T3, cathepsin L (Homo sapiens, UniProt P07711); experiment: Inhibition of cathepsin L; settings: for inhibition at 1 µM: Table III, read-out: Cat L % I @ 1 uM
T3 construct: purchased Calbiochem 219402
Experimental: (§1) Additionally,the order of reagents added to the plate was altered because both enzymes are constitutively active. Following inhibitor addition to the plates, appropriate 2× concentrated stock dilutions of the enzyme preparations were made in assay buffer and 100 μl added to each well. The assay was initiated by addition of 100 μl of 2× concentrated stock dilution of substrate in assay buffer.

cathepsin B = biological target: T4, cathepsin B (Homo sapiens, UniProt P07858); experiment: Inhibition of cathepsin B; settings: for inhibition at 1 µM: read-out: Cat B % I @ 1 uM; for IC50: read-out: Cat B IC50
T4 construct: purchased Calbiochem 219364
Experimental: as §1

α-chymotrypsin = biological target: T5, α-chymotrypsin (Bos taurus, UniProt P00766); experiment: Inhibition of α-chymotrypsin; settings: 10 uM, read-out: Chymotrypsin % I @ 10 uM
T5 construct: purchased Sigma Chem. Co. C-3142
Summary of the method: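 Enzyme added to inhibitor first, then reaction started with substrate; no calcium activation needed as enzyme is constitutively active. Fluorogenic substrate hydrolysis read every 5 min up to 30 min ([…]).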

T3 sequence (P07711 114-288 limits assumed): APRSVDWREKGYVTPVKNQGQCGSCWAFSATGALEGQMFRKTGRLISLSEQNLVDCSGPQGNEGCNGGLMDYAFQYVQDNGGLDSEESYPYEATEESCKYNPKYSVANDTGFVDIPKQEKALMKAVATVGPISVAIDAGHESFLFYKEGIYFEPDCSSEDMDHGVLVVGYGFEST
T3 sequence (P07711 292-333 limits assumed): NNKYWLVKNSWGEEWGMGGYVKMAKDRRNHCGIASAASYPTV

inhibition at 10 µM (thrombin; Table III) | IC50 ([1]; Table III) | inhibition at 0.1 µM ([1]; Table III) | inhibition at 1 µM (cathepsin L) | inhibition at 1 µM (cathepsin B; Table III) | inhibition at 10 µM (α-chymotrypsin; Table III) | inhibition at 10 µM (thrombin; Table II) | IC50 ([1]; Table II) | IC50 (cathepsin L; Table II, read-out: Cat L IC50) | IC50 (cathepsin B; Table II) | inhibition at 10 µM (α-chymotrypsin; Table II) | IC50 (cathepsin B; Table III) | Compound
0% | 72 nM | 25% | 100% | 98% | 0% | – | – | – | – | – | – | O=C[C@H](Cc1ccccc1)NC(=O)[C@@H](COCc1ccccc1)NS(=O)(=O)N1CCOCC1 [Compound 53]
0% | 53 nM | 84% | 100% | 46% | 2% | – | – | – | – | – | – | CS(=O)(=O)N1CCC[C@@H]1C(=O)N[C@H](C=O)Cc1ccccc1 [Compound 101] (Ms-[dP]-Phe-aldehyde)
0% | – | 31% | 99% | 33% | 8% | – | – | – | – | – | – | CS(=O)(=O)N[C@H](COCc1ccccc1)C(=O)N[C@H](C=NO)Cc1ccccc1 [Compound 118]
3% | 71 nM | 37% | 56% | 40% | 26% | – | – | – | – | – | – | CC(=O)Nc1ccc(S(=O)(=O)N2CCC[C@@H]2C(=O)N[C@H](C=O)Cc2ccccc2)cc1 [Compound 103]
6% | – | 4% | 93% | 60% | 8% | – | – | – | – | – | – | CC(C)(C)OC(=O)N[C@H](COCc1ccccc1)C(=O)N[C@H](C=O)Cc1ccccc1 [Compound 82]
0% | 5 nM | 99% | 99% | 100% | 0% | – | – | – | – | – | – | CS(=O)(=O)N[C@H](COCc1ccccc1)C(=O)N[C@H](C=O)Cc1ccc(OCc2ccccc2)cc1 [Compound 90] (Ms-[dS](Bn)-Tyr(Bn)-aldehyde)
7% | 8 nM | 95% | 100% | 92% | 16% | – | – | – | – | – | – | CS(=O)(=O)N[C@H](CSCc1ccccc1)C(=O)N[C@H](C=O)Cc1ccccc1 [Compound 106] (Ms-[dC](Bn)-Phe-aldehyde)
5% | 93 nM | 40% | 91% | 88% | 0% | – | – | – | – | – | – | CC(C)C[C@@H](C=O)NC(=O)[C@@H](COCc1ccccc1)NS(C)(=O)=O [Compound 88] (Ms-[dS](Bn)-Leu-aldehyde)
– | – | – | – | – | – | 0% | 83 nM | 2000 nM | 11000 nM | 2% | – | CC(=O)N[C@H](CC(=O)N1CCc2ccccc2C1)C(=O)N[C@H](C=O)Cc1ccccc1 [Compound 9, 2-THIQ-C(=O)CH2 CH(NHC(=O)CH3)C(=O)-Phe--H]
0% | – | 10% | 83% | 12% | 0% | – | – | – | – | – | – | CC(C)CC(C)(C=O)NC(=O)[C@@H](COCc1ccccc1)NS(C)(=O)=O (stereo partly drawn) [Compound 110] (Ms-[dS](Bn)-[ξαMeL]-aldehyde)
0% | 13 nM | 93% | 100% | 100% | 1% | – | – | – | – | – | – | CN1CCN(C)C1[C@H](Cc1ccccc1)NC(=O)[C@@H](COCc1ccccc1)NS(C)(=O)=O [Compound 133]
0% | – | 7% | 14% | 16% | 2% | – | – | – | – | – | – | CCNC(=O)OC[C@H](Cc1ccccc1)NC(=O)[C@H]1CCCN1S(=O)(=O)c1ccc(C)cc1 [Compound 123]
7% | 72 nM | 63% | 73% | 69% | 0% | – | – | – | – | – | – | O=C[C@H](Cc1ccccc1)NC(=O)[C@H]1CCCN1S(=O)(=O)Cc1ccccc1 [Compound 102]
12% | 14 nM | 95% | 100% | 100% | 16% | – | – | – | – | – | – | O=C[C@H](Cc1ccccc1)NC(=O)[C@@H](Cc1c[nH]c2ccccc12)NS(=O)(=O)c1cccs1 [Compound 73]
0% | 16 nM | 85% | 100% | 90% | 12% | – | – | – | – | – | – | CS(=O)(=O)N[C@H](Cc1ccccc1)C(=O)N[C@H](C=O)Cc1ccccc1 [Compound 70] (Ms-[dF]-Phe-aldehyde)
3% | – | 85% | 100% | 24% | 9% | – | – | – | – | – | – | Cc1ccc(S(=O)(=O)N2C[C@@H](N=[N+]=[N-])C[C@@H]2C(=O)N[C@H](C=O)Cc2ccccc2)cc1 [Compound 114]
4% | – | 0% | 39% | 47% | 0% | – | – | – | – | – | – | CS(=O)(=O)N[C@H](COCc1ccccc1)C(=O)N[C@@H](Cc1ccccc1)C(=O)CCc1ccccc1 [Compound 125]
3% | 31 nM | 87% | 100% | 99% | 0% | – | – | – | – | – | 11 nM | O=C[C@H](Cc1ccccc1)NC(=O)[C@@H](COCc1ccccc1)NS(=O)(=O)c1ccccc1 [Compound 48]
11% | – | 6% | 55% | 21% | 0% | – | – | – | – | – | – | CS(=O)(=O)N[C@H](COCc1ccccc1)C(=O)N[C@@H](Cc1ccccc1)C1OCCS1 (stereo partly drawn) [Compound 131]
0% | – | 0% | 94% | 47% | 0% | – | – | – | – | – | – | CS(=O)(=O)N[C@H](COCc1ccccc1)C(=O)N[C@H](C=NNC(N)=O)Cc1ccccc1 [Compound 115]
0% | 62 nM | 66% | 100% | 96% | 13% | – | – | – | – | – | – | CS(=O)(=O)N[C@@H](Cc1cccs1)C(=O)N[C@H](C=O)Cc1ccccc1 [Compound 99] (Ms-[2Thi]-Phe-aldehyde)
3% | – | 28% | 17% | 83% | 18% | – | – | – | – | – | – | Cc1ccc(S(=O)(=O)O[C@@H]2C[C@H](C(=O)N[C@H](C=O)Cc3ccccc3)N(S(=O)(=O)c3ccc(C)cc3)C2)cc1 [Compound 121]
10% | 20 nM | 91% | 99% | 100% | 2% | – | – | – | – | – | – | O=C[C@H](Cc1ccccc1)NC(=O)[C@@H](Cc1ccccc1)NS(=O)(=O)c1cccs1 [Compound 75]
